Assay results as given in publication PMC5541560, “A biomimetic semisynthesis enables structural elucidation of selaginellin U: a tautomeric cyclic alkynylphenol from Selaginella tamariscina” (Royal Society Open Science, 2017).

Legend:
[1] = molecular target: T1, β-site amyloid precursor protein cleaving enzyme 1 (BACE1) (Homo sapiens, UniProt P56817); test: biochemical; set-up: FRET peptide substrate cleavage assay (Sigma kit CS0010), purified baculovirus-expressed BACE1, inhibition
Method: Compounds 1–3 and 7–16 were tested for β-site amyloid precursor protein (APP) cleaving enzyme 1 (BACE1) inhibitory activity. BACE1 inhibitory evaluation was performed with a fluorescence resonance energy transfer (FRET) assay kit supplied by Sigma (Kit CS0010, St. Louis, USA). The kit used purified baculovirus-expressed BACE1 and FRET peptide substrates.

[2] = molecular target: T1, β-site amyloid precursor protein cleaving enzyme 1 (BACE1); test: FRET peptide substrate assay (Sigma kit CS0010), purified baculovirus-expressed BACE1; assay type: biochemical

T1 sequence (P56817 46-457): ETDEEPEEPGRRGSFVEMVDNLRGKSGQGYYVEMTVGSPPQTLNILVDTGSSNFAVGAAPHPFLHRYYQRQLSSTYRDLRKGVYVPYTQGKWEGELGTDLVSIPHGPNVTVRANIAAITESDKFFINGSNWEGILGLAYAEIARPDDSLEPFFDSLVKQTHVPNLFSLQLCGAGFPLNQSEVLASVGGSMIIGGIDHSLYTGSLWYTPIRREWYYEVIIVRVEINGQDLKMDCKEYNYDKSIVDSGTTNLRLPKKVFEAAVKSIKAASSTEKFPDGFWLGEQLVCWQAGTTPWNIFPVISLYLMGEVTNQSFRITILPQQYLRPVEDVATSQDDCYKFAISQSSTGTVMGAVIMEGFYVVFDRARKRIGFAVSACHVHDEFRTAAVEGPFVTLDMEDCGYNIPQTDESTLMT

## O=C1OC(c2ccc(O)cc2)(c2ccc(O)cc2)c2c1cccc2-c1ccc(O)cc1 [compound 1, selaginellin T]
[1]
  IC50: > 100 µM

## O=C1C=CC(=C(c2ccc(O)cc2)c2c(-c3ccc(O)cc3)ccc3c(=O)oc(-c4ccc(O)cc4)cc23)C=C1 [compound 2, selaginellin U]
[1]
  IC50: > 100 µM

## O=C1C=CC(=C(c2ccc(O)cc2)c2c(-c3ccc(O)cc3)ccc(CO)c2C#Cc2ccc(O)cc2)C=C1 [compound 3, selaginellin]
[2]
  IC50: 81.2 µM

## OCc1ccc2c(c1C#Cc1ccc(O)cc1)C(c1ccc(O)cc1)(c1ccc(O)cc1)c1cc(O)ccc1-2 [compound 7, selaginpulvilin A]
[1]
  IC50: > 100 µM

## Cc1ccc(-c2ccc(O)cc2)c(C(=C2C=CC(=O)C=C2)c2ccccc2)c1C#Cc1ccc(O)cc1 [compound 12, selaginellin A]
[1]
  IC50: > 100 µM

## Cc1ccc(-c2ccc(O)cc2)c(C(=C2C=CC(=O)C=C2)c2ccc(O)cc2)c1C#Cc1ccc(O)cc1 [compound 13, selaginellin B]
[2]
  IC50: 51.1 µM

## COc1ccc(C(=C2C=CC(=O)C=C2)c2c(-c3ccc(O)cc3)ccc(CO)c2C#Cc2ccc(O)cc2)cc1 [compound 15, selaginellin M]
[1]
  IC50: > 100 µM

## O=Cc1ccc(-c2ccc(O)cc2)c(C(=C2C=CC(=O)C=C2)c2ccc(O)cc2)c1C#Cc1ccc(O)cc1 [compound 16, selaginellin O]
[2]
  IC50: 48.9 µM
